Laboratory results reported in ChEMBL document CHEMBL2311441.

Target: T1, NAD-dependent protein deacetylase sirtuin-1 (Homo sapiens) (UniProt Q96EB6)
T1 sequence (whole entry): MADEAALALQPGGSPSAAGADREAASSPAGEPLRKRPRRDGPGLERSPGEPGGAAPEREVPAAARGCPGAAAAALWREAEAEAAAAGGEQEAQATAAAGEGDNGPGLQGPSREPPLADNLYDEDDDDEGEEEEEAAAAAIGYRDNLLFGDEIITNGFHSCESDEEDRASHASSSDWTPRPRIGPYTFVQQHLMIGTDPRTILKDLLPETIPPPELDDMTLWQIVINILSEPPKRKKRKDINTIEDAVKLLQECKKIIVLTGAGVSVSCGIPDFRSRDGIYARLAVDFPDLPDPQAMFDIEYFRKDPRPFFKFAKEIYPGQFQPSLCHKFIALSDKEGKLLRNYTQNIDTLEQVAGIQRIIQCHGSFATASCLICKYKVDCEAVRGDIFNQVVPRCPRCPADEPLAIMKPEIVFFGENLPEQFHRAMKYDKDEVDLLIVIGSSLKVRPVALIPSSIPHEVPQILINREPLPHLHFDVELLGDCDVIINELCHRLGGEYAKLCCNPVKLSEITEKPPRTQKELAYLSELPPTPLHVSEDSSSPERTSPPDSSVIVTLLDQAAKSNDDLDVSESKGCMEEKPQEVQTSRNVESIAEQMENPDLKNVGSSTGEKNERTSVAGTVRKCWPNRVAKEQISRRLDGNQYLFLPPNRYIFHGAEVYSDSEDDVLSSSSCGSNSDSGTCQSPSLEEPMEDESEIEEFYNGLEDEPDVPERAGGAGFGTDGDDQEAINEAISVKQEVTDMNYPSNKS
Conditions: Sf9

| Compound | ΔTm [°C] |
| --- | --- |
| NC(=O)[C@@H]1CCCc2c1[nH]c1ccc(Cl)cc21 | 10 |
| NC(=O)[C@@H]1CCCCc2c1[nH]c1ccc(Cl)cc21 | 10 |
